# According to patent US20150150261A1, “METHODS FOR APPLYING DIFORMYLUREA TO CROPS FOR GREATER PLANT PRODUCTIVITY” (Stoller Enterprises, Inc., priority 2013, published 2015):
# Entries after “also recorded” stand apart in the source; their conditions may differ.
# What was measured:
# Format in all cases: in vivo
# soybean = test: Soybean yield with DFU and Quadris fungicide (Table 3)
# From the text: Table 3 below illustrates the increased performance of herbicides and fungicides for crop plants by addition of DFU to the crops. Quadris™ fungicide (product of Syngenta Crop Protection, Inc.) was applied at the R1 stage of growth and gave a yield increase of 15 bushels per acre. DFU by itself increased soybean yields by 40 bushels per acre. DFU and Quadris applied together increased the yields by 52 bushels.
# corn crop = test: Corn crop yield with DFU combined with nitrogen fertilizer; details: DFU combined with nitrogen fertilizer to the soil vs nitrogen fertilizer alone
# From the text: Enhanced tissue development in DFU treated corn plants is illustrated by the experiment illustrated in FIG. 15.
# corn seedlings [1] = test: Sealed barrel water use test with corn seedlings (FIG. 14)
# Method: It has also been discovered that crops treated with DFU require less water for growing. See the results illustrated in FIG. 14. In two barrels that were sealed at the top, a precise amount of growing medium was added with appropriate fertilizer and a precise amount of water. […] Seven corn seedlings were germinated and grown in the growing medium in each of the barrels for a period of 37 days. At 37 days the fresh weight and dry weights of corn plants were determined. The graph on the right side of […] depicts the combined weight of the water and the plants growing out of the barrels. The graph on the left depicts the average amount of water needed to grow the treated vs the untreated corn, indicating a twenty eight percent savings with the DFU-treated plants contrasted to the untreated plants. The two barrels were constantly weighed electronically.
# corn plant [2] = test: Internodal stalk volume of corn plants (Table 1)
# Method: It has also been discovered that DFU treatment of corn plants increases the inter-nodal volume of corn plants. Table 1 below confirms that discovery where intermodal stalk volumes of untreated corn crop plants was calculated to be 311.71 cc per plant whereas the inter-nodal stalk volumes of the DFU-treated corn plant was 355.47, an increase of 14% over the control plant.
# corn plant [3] = test: Soil moisture around feeder roots of corn plants (FIGS. 2, 3); details: DFU-treated (FIG. 3) vs untreated (FIG. 2) corn plant
# From the text: FIG. 2 is a photograph of a root structure showing dry soil around the roots of a corn plant that has not been treated with DFU; FIG. 3 is a photograph of a root structure showing moist soil around the roots of a corn plant (grown under the same conditions as that of FIG. 2) treated with DFU; It has also been discovered that applying DFU to crop plants causes enhancement of crop plant cellular water and soil moisture around the feeder roots. Compare the feeder root system of FIG. 2 of a plant that has had no DFU applied to it with the feeder root system of FIG. 3 of a plant that has DFU applied to it.
# corn plants [4] = test: Root structure of DFU-treated vs untreated corn plants (FIG. 1); details: treated vs untreated corn plant
# From the text: FIG. 1 is a photograph illustrating root structure of two corn plants, one treated (on right) with DFU, the other untreated (on left); It has been discovered that application of DFU to growing crop plants results in a large increase in the functional capacity of the crop plant root system because of selective root tissue synthesis and development of fine small feeder roots that operate to take up water and minerals from the soil environment. Treatment of crop plant tissue described herein includes exogenous treatment of the crop plants with a DFU solution at a rate of between 0.1 to 10 pints/acre over the crop growth stages or as a preferred rate of 0.5 to 1.5 pints per acre. Preferably, the concentration of the DFU which is applied at the above rates is from stock solutions of 0.001 Molar to 1.0 Molar with a preferred Molarity of 0.001 Molar to 0.05 Molar. FIG. 1 is a photograph of two plants: the plant on the left had no treatment with DFU; the plant on the right hand side was treated with DFU. […] The treated plant on the right hand side of FIG. 1 is in contrast to the thicker deeper roots of the plant on the left hand side which has fewer “root tips” for water and nutrient uptake from the soil. The DFU treated plant on the right has smaller feeder roots for water, mineral, and nutrient uptake from the roots to the shoots.
# soybean plants = test: Soybean yield after DFU seed treatment (Table 2)
# From the text: As further evidence the increase in crop production as a result of DFU treatment see Table 2 below. Untreated soybean plant yields were 52.5 bushels per acre. The DFU treated soybean plants yielded 111 bushels per acre. This represents an increase in […] of 111 percent.
# corn seedlings [5] = test: Guttation on corn seedling leaves (FIG. 4); details: as a function of DFU amounts
# From the text: FIG. 4 illustrates the results of increased guttation on seedling leaves as a function of DFU amounts.
# corn plants [6] = test: Survival of corn plants in a flooded field (FIGS. 5-13); details: corn field flooded by excessive rain; in furrow DFU
# From the text: The method of applying DFU to crop plants, which has been covered by natural rain or other types of flooding is a distinctive enhanced feature of DFU treatment of crop plants to ameliorate damaging effects of field soil excessive moisture such as flooding. The most efficacious method of DFU treatment for this feature is that of an “in furrow” application into the open soil furrow at time of crop seed sowing with a spray of DFU at a dose of one to one and a half pints per acre over the seed and unto the soil of the open furrow before closure of the open furrow and application of pressure to the closed furrow for optimal soil contact with the seed. […] DFU is preferably sprayed at a dose of 1 pint per acre to 1½ pints per acre over the seed and onto the soil of the open furrow before closure of the open furrow and application of pressure to the closed furrow for optional soil contact with the seed. FIG. 5 is a photograph of a corn field completely flooded by excessive rain. FIGS. 6 and 7 show corn plants treated with DFU after the excessive water has retreated somewhat. The corn plants are seen to be growing. […] FIG. 9 is a photograph of a corn field which has not been treated with DFU, but after flooding, has been almost completely killed because of the water. FIG. 10 is a close-up photo of corn that has been killed because of flooding. […]
# [7] = tested on: field corn cultivar DKC 66-96; test: Field corn yield, nitrogen fertilizer use efficiency (Table 4)
# From the text: A total of 180 lb of nitrogen fertilizer/acre, with ½ of nitrogen applied at V4 (forth leaf) and ½ at V7 (seventh leaf) as a side dress (3 inches to the side of the plant and 3 inches below the soil surface). The field corn cultivar DKC 66-96 was planted on Feb. 11, 2013 and harvested on Jul. 12, 2013.
# field corn = test: Field corn yield, foliar DFU at V4 along with Round-Up herbicide (Table 5); design: Yield rep1 / Yield rep2 / Yield rep3 / Yield rep4: unit not given here; details: for Yield Bu/acre: control 209
# From the text: Table 5 below illustrates the effect of foliar application of DFU applied at V4 (4th leaf stage of crop growth) at either the rate of ½ pt/acre along with the herbicide Round-Up™ herbicides on field corn. Both the control and the treatments also had 0.9 lb of ammonium sulfate applied along with the herbicide and di-formylurea (DFU). The field corn was planted in southern Texas on Mar. 3, 2012, at a population density of 35,000 plants per acre. […] The large difference was in the harvestable yields of the di-formyl urea treated plants over the control which received the herbicide only.
# [8] = soybean yield, DFU 1 pt/acre, Quadris recommended rate
# [9] = soybean, seed treatment 2 oz DFU/cwt of seed
# [10] = field corn, seed treat 2 oz/cwt, V4 ½ pt, V9 1 pt
structure (smiles),measurement,setting,value
"O=CNC(=O)NC=O [DFU, diformylurea]",Soybean Yield Bu/acre,"soybean; DFU @ 1 pt/acre, Quadris @ recommended rate at R1, control 55.0",95.1 Bu/acre
same,Rep 1,soybean; [8],92.7
same,Rep 2,soybean; [8],95.8
same,Rep 3,soybean; [8],89.9
same,Rep 4,soybean; [8],102
same,soybean yield increase,soybean; vs control,40 bushels per acre
same,yield of the corn crop,corn crop,significantly enhances yield
same,savings in average amount of water needed to grow corn,"corn seedlings [1]; 0.0015% solution of DFU, 37 days, vs untreated",twenty eight
same,enhanced water use efficiency,corn seedlings [1]; crop plants treated with DFU,up to 28%
same,Internodal Volume (cc),corn plant [2]; Growth Stage V1,33.49 cc
same,Internodal Volume (cc),corn plant [2]; Growth Stage V2,45.02 cc
same,Internodal Volume (cc),corn plant [2]; Growth Stage V3,55.76 cc
same,Internodal Volume (cc),corn plant [2]; Growth Stage V4,59.14 cc
same,Internodal Volume (cc),corn plant [2]; Growth Stage V5,54.34 cc
same,Internodal Volume (cc),corn plant [2]; Growth Stage V6,47.79 cc
same,Internodal Volume (cc),corn plant [2]; Growth Stage V7,35.02 cc
same,Internodal Volume (cc),corn plant [2]; Growth Stage V8,24.9 cc
same,inter-nodal stalk volumes per plant,"corn plant [2]; calculated total, untreated 311.71",355.47 cc per plant
same,increase of inter-nodal stalk volume over the control plant,corn plant [2]; vs untreated corn plant,14%
same,soil moisture around the root system,corn plant [3],Much more moist soil
same,fine small feeder root system development,corn plants [4],significantly greater fine small feeder root system development
same,increase in water use efficiency,soybean plants; soybean yield vs untreated 52.5 bushels per acre,111%
same,Rep 1 Yield,soybean plants; [9],109
same,Rep2 Yield,soybean plants; [9],112
same,Rep3 Yield,soybean plants; [9],111
same,Rep4 Yield,soybean plants; [9],112
same,Average Yield bu per acre,"soybean plants; soybean, seed treatment 2 oz DFU/cwt of seed, control 52.5",111 bu per acre
same,soybean plant yield,soybean plants; untreated 52.5,111 bushels per acre
same,guttation of water on plant leaves,corn seedlings [5],increases guttation
same,survival of plants in flooded field,corn plants [6],prevents drowning of the plants; also recorded: survived the flood
same,Rep 1 Yield,[7]; [10],175.5
same,Rep2 Yield,[7]; [10],188
same,Rep3 Yield,[7]; [10],178.7
same,Rep4 Yield,[7]; [10],185.1
same,Average Yield bu per acre,"[7]; field corn, seed treat 2 oz/cwt, V4 ½ pt, V9 1 pt, 180 lb nitrogen fertilizer/acre, control 112.6",180.6 bu per acre
same,increase in efficiency of use of the available nitrogen mineral fertilizer,[7]; harvested yield vs untreated control,60.7%
same,Yield % increase,field corn; V4 foliar 1 pt/acre,21.5%
same,Yield increase bu/acre vs control,field corn; V4 foliar 1 pt/acre,45 bu/acre
same,Yield rep1,field corn; V4 foliar 1 pt/acre,246
same,Yield rep2,field corn; V4 foliar 1 pt/acre,251
same,Yield rep3,field corn; V4 foliar 1 pt/acre,256
same,Yield rep4,field corn; V4 foliar 1 pt/acre,264
same,Yield Bu/acre,field corn; V4 foliar 1 pt/acre with Round-Up and ammonium sulfate,254 Bu/acre
same,Yield % increase,field corn; V4 foliar ½ pt/acre,13.9%
same,Yield increase bu/acre vs control,field corn; V4 foliar ½ pt/acre,29 bu/acre
same,Yield rep1,field corn; V4 foliar ½ pt/acre,227
same,Yield rep2,field corn; V4 foliar ½ pt/acre,232
same,Yield rep3,field corn; V4 foliar ½ pt/acre,224
same,Yield rep4,field corn; V4 foliar ½ pt/acre,237
same,Yield Bu/acre,field corn; V4 foliar ½ pt/acre with Round-Up and ammonium sulfate,230 Bu/acre
